Test [1] has as its system DLD-1 human colon cancer cells. Put plainly: in vitro cell growth inhibition assay using DLD-1 cells. The class given is cell-based.
Test [2] relates to U937 human histiocytic lymphoma cells. Description: U937 Mitotic Block Reversibility Assay. The class given is cell-based. To be noted: for reversibility of induced mitotic blocks: blocks sustained 10 hour after drug washout.
[3] abbreviates: in vitro cell growth inhibition, DLD-1 human colon cancer cells, read-out: DLD-1 mean IC50.
[4] abbreviates: Homo sapiens, DLD-1, read-out: DLD-1 mean IC50.

SMILES strings stand for the structures. pIC50: −log10 of the molar value. Where two headings read alike, the source gives them in different places.

The term pIC50 denotes the IC50 on a negative log10 scale, so that one unit is a factor of ten.

Turning to `C=C1CC2CCC34CC5OC6C(OC7CCC(CC(=O)C[C@H]8C(CC9OC(CCC1O2)CC(C)C9=C)OC(CC(O)CO)C8OC)OC7C6O3)C5O4` (stereo partly shown) [Compound B1793], the pIC50 in test [1] (setting [3]) was 9.03. Besides, the “Reversibility Ratio” value in test [2] was found to be 14.7. For the same compound, the “Complete Mitotic Block 10 hour” value in test [2] (after washout, 12 h pretreatment, U937 cells) is listed as 44 nM. Further, the “Complete Mitotic Block 0 hour” value in test [2] (before washout, 12 h pretreatment, U937 cells) was 3 nM. Turning to `C=C1CC2CCC34CC5OC6C(OC7CCC(CC(=O)CC8C(CC9OC(CCC1O2)CC(C)C9=C)OC(CC(O)CO)C8OC)OC7C6O3)C5O4` (stereo not shown) [Compound B1794], the pIC50 in test [1] (setting [3]) is 7.91. `C=C1CC2CCC34CC5OC6C(OC7CCC(CC(=O)CC8C(CC9OC(CCC1O2)CC(C)C9=C)OC(CC(O)CN=[N+]=[N-])C8OC)OC7C6O3)C5O4` (stereo not shown) [Compound B1922]: the negative logarithm of the IC50 (pIC50) in test [1] (setting [4]) is 9.28. In test [2], the “Complete Mitotic Block 0 hour” value turned out to be 3 nM, the “Complete Mitotic Block 10 hour” value is on record as 30 nM and the “Reversibility Ratio” value turned out to be 10.0. In the case of `C=C1CC2CCC34CC5OC6C(OC7CCC(CC(=O)CC8C(CC9OC(CCC1O2)CC(C)C9=C)OC(CC(O)CNC(=O)C(=O)c1ccccc1)C8OC)OC7C6O3)C5O4` (stereo not shown) [Compound B1930], the pIC50 in test [1] (read-out: DLD-1 mean IC50) was 9.06. As to `C=C1CC2CCC34CC5OC6C(OC7CCC(CC(=O)CC8C(CC9OC(CCC1O2)CC(C)C9=C)OC(CC(=O)CO)C8OC)OC7C6O3)C5O4` (stereo not shown) [Compound B1934], in test [1] (setting [4]), the pIC50 was 8.98. Further, in test [2], the “Complete Mitotic Block 0 hour” value came to 3 nM, the “Complete Mitotic Block 10 hour” value was determined as 30 nM and the “Reversibility Ratio” value is reported as 10.0. With `C=C1CC2CCC34CC5OC6C(OC7CCC(CC(=O)CC8C(CC9OC(CCC1O2)CC(C)C9=C)OC(CC(O)CNC(=O)Cc1cccnc1)C8OC)OC7C6O3)C5O4` (stereo not shown) [Compound B1940], the pIC50 in test [1] (read-out: DLD-1 mean IC50) was 8.27. On to `C=C1CC2CCC34CC5OC6C(OC7CCC(CC(=O)CC8C(CC9OC(CCC1O2)CC(C)C9=C)OC(CC(O)CNC(=O)Cc1ccccc1)C8OC)OC7C6O3)C5O4` (stereo not shown) [Compound B1973], for which the pIC50 in test [1] (read-out: DLD-1 mean IC50) was 8.94. Still for that read-out and setting: in the case of `C=C1CC2CCC34CC5OC6C(OC7CCC(CC(=O)CC8C(CC9OC(CCC1O2)CC(C)C9=C)OC(CC(O)COC(=O)Nc1ccccc1)C8OC)OC7C6O3)C5O4` (stereo not shown) [Compound B1984] it was 9.00; in that of `C=C1CC2CCC34CC5OC6C(OC7CCC(CC(=O)CC8C(CC9OC(CCC1O2)CC(C)C9=C)OC(CC(O)CNC(=O)C(=O)c1c[nH]c2ccccc12)C8OC)OC7C6O3)C5O4` (stereo not shown) [Compound B1987], 8.74.

For `C=C1CC2CCC34CC5OC6C(OC7CCC(CC(=O)CC8C(CC9OC(CCC1O2)CC(C)C9=C)OC(CC(=O)CNC(=O)C(=O)c1ccccc1)C8OC)OC7C6O3)C5O4` (stereo not shown) [Compound B1988], the pIC50 in test [1] (setting [4]) was 8.57. `C=C1CC2CCC34CC5OC6C(OC7CCC(CC(=O)CC8C(CC9OC(CCC1O2)CC(C)C9=C)OC(CC(O)COC(=O)Nc1ccc(Cl)cc1)C8OC)OC7C6O3)C5O4` (stereo not shown) [Compound B1990]: the pIC50 in test [1] (read-out: DLD-1 mean IC50) was 8.89. Same read-out and setting: to `C=C1CC2CCC34CC5OC6C(OC7CCC(CC(=O)CC8C(CC9OC(CCC1O2)CC(C)C9=C)OC(CC(O)CNC(=O)c1ccc(Cl)cc1)C8OC)OC7C6O3)C5O4` (stereo not shown) [Compound B1991] belongs 9.16; to `C=C1CC2CCC34CC5OC6C(OC7CCC(CC(=O)CC8C(CC9OC(CCC1O2)CC(C)C9=C)OC(CC(O)COC(=O)Nc1ccc(OC)cc1)C8OC)OC7C6O3)C5O4` (stereo not shown) [Compound B1992], 9.07; to `C=C1CC2CCC34CC5OC6C(OC7CCC(CC(=O)CC8C(CC9OC(CCC1O2)CC(C)C9=C)OC(CC(O)CNC(=O)C(=O)c1cc(OC)c(OC)c(OC)c1)C8OC)OC7C6O3)C5O4` (stereo not shown) [Compound B2003], 8.92. With `C=C1CC2CCC34CC5OC6C(OC7CCC(CC(=O)CC8C(CC9OC(CCC1O2)CC(C)C9=C)OC(CC(O)CNC(=O)c1cc(OC)c(OC)c(OC)c1)C8OC)OC7C6O3)C5O4` (stereo not shown) [Compound B2004], the pIC50 in test [1] (read-out: DLD-1 mean IC50) was 9.20. On to `C=C1CC2CCC34CC5OC6C(OC7CCC(CC(=O)CC8C(CC9OC(CCC1O2)CC(C)C9=C)OC(CC(O)COCc1ccc(F)cc1)C8OC)OC7C6O3)C5O4` (stereo not shown) [Compound B2014], for which the pIC50 in test [1] (setting [4]) is 9.06.

With `C=C1CC2CCC34CC5OC6C(OC7CCC(CC(=O)CC8C(CC9OC(CCC1O2)CC(C)C9=C)OC(CC(CO)OCc1ccc(F)cc1)C8OC)OC7C6O3)C5O4` (stereo not shown) [Compound B2015], the pIC50 in test [1] (setting [4]) was 8.56. On to `C=CC(F)(F)C(O)CC1OC2CC3OC(CCC4OC(CCC56CC7OC8C(OC9CCC(CC(=O)CC2C1OC)OC9C8O5)C7O6)CC4=C)CC(C)C3=C` (stereo not shown) [Compound B2035], for which, in test [1] (setting [4]), the negative-log IC50 (pIC50) was 9.12. Still for that read-out and setting: in the case of `C=C1C[C@@H]2CCC34CC5OC6C(OC7CCC(CC(=O)CC8C(CC9OC(CCC1O2)CC(C)C9=C)OC(CCO)C8OC)OC7C6O3)C5O4` (stereo partly shown) [Compound B2037] it was 9.18; in that of `C=C1CC2CCC34CC5OC6C(OC7CCC(CC(=O)CC8C(CC9OC(CCC1O2)CC(C)C9=C)OC(CC(O)CC(O)CO)C8OC)OC7C6O3)C5O4` (stereo not shown) [Compound B2086], 7.95. For the compound `C=C1CC2CCC34CC5OC6C(OC7CCC(CC(=O)CC8C(CC9OC(CCC1O2)CC(C)C9=C)OC(C(O)CO)C8C)OC7C6O3)C5O4` (stereo not shown) [Compound B2090], the pIC50 in test [1] (setting [4]) is 9.28. Turning to `C=C1CC2CCC34CC5OC6C(OC7CCC(CC(=O)CC8C(CC9OC(CCC1O2)CC(C)C9=C)OC(CC(O)CCO)C8OC)OC7C6O3)C5O4` (stereo not shown) [Compound B2091], in test [1] (setting [4]), the pIC50 was 8.87. Also, in test [2], the “Complete Mitotic Block 0 hour” value is on record as 3 nM, the “Complete Mitotic Block 10 hour” value is reported as 30 nM and the “Reversibility Ratio” value worked out at 10.0. Turning to `C=C1CC2CCC34CC5OC6C(OC7CCC(CC(=O)CC8C(CC9OC(CCC1O2)CC(C)C9=C)OC(C(O)CN)C8C)OC7C6O3)C5O4` (stereo not shown) [Compound B2136], in test [1] (setting [4]), the negative logarithm of the IC50 (pIC50) is 8.28. Further, in test [2], the “Complete Mitotic Block 0 hour” value was 3 nM, the “Complete Mitotic Block 10 hour” value is 3 nM and the “Reversibility Ratio” value is 1.0. In the case of `C=C1C[C@@H]2CCC34CC5OC6C(OC7CCC(CC(=O)CC8C(CC9OC(CCC1O2)CC(C)C9=C)OC(CC(O)COS(C)(=O)=O)C8OC)OC7C6O3)C5O4` (stereo partly shown) [Compound B2294], the pIC50 in test [1] (setting [4]) was 9.10. `C=C1CC2CCC34CC5OC6C(OC7CCC(CC(=O)CC8C(CC9OC(CCC1O2)CC(C)C9=C)OC(CC(O)CN(C)C)C8OC)OC7C6O3)C5O4` (stereo not shown) [Compound B2320]: the negative logarithm of the IC50 (pIC50) in test [1] (read-out: DLD-1 mean IC50) is 8.92. Also, in test [2], the “Complete Mitotic Block 0 hour” value worked out at 1 nM, the “Complete Mitotic Block 10 hour” value stood at 10 nM and the “Reversibility Ratio” value stood at 10.0. With `CC[C@]1(O)C[C@@H]2CN(CCc3c([nH]c4ccccc34)[C@@](C(=O)OC)(c3cc4c(cc3OC)N(C)[C@H]3[C@@](O)(C(=O)OC)[C@H](OC(C)=O)[C@]5(CC)C=CCN6CC[C@]43[C@@H]65)C2)C1` [Vinblastine, reference compound], the Reversibility ratio in test [2] (Table 2) came out at 60. Moreover, in test [2] (Table 2, U937 cells), the “Drug concentration required for complete mitotic block, 0 hour (before washout)” value is 10 nM and the “Drug concentration required for complete mitotic block, 10 hour (after washout)” value came out at 600 nM. Moreover, in test [2], the “reversibility of induced mitotic blocks” value is recorded as “highly reversible”.

Consider `CC[C@]1(O)C[C@H]2CN(CCc3c([nH]c4ccccc34)[C@@](C(=O)OC)(c3cc4c(cc3OC)N(C=O)[C@H]3[C@@](O)(C(=O)OC)[C@H](OC(C)=O)[C@]5(CC)C=CCN6CC[C@]43[C@@H]65)C2)C1` [Vincristine, reference compound], for which the Reversibility ratio in test [2] (Table 2) was 1. For the same compound, in test [2] (Table 2, U937 cells), the “Drug concentration required for complete mitotic block, 0 hour (before washout)” value is recorded as 10 nM and the “Drug concentration required for complete mitotic block, 10 hour (after washout)” value is recorded as 10 nM. Besides, in test [2] (Table 2, reversibility of mitotic block), the Interpretation result is “Irreversible”. In addition, the “reversibility of induced mitotic blocks” value in test [2] is given as “irreversible”.

The values are drawn from US6365759B1, “Intermediate compounds for preparing macrocylcic analogs” (Eisai Co., Ltd., priority 1998, dated 2002).
